Data as given in PubChem BioAssay (NCI).
Several values for one entry are separate records, joined by “and”; a condition that tells them apart may be missing. Equal values may be shown once.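 Grown in 96-well plates, cells were treated for 48 hours with each compound at five concentrations. Insufficient inhibition: endpoint recorded as highest concentration tested. GI50 = concentration required for 50% inhibition of growth. TGI marks complete inhibition of growth.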

Legend:
Assay in all cases: NCI tumour cell line growth inhibition, 48 h
A498 renal = system: A498 renal
A549 NSCLC = system: A549 NSCLC
ACHN renal = system: ACHN renal
K-562 leukemia = system: K-562 leukemia
NCI-H460 lung = system: NCI-H460 lung
SF-539 CNS = system: SF-539 CNS
SF-295 CNS = system: SF-295 CNS
SR leukemia = system: SR leukemia
DU-145 prostate = system: DU-145 prostate
PC-3 prostate = system: PC-3 prostate

Structure (SMILES) | TGI (A498 renal) | TGI (A549 NSCLC) | TGI (ACHN renal) | TGI (K-562 leukemia) | TGI (NCI-H460 lung) | TGI (SF-539 CNS) | TGI (SF-295 CNS) | TGI (SR leukemia) | GI50 (A498 renal) | GI50 (A549 NSCLC) | GI50 (ACHN renal) | GI50 (DU-145 prostate) | TGI (DU-145 prostate) | GI50 (K-562 leukemia) | GI50 (NCI-H460 lung) | GI50 (PC-3 prostate) | TGI (PC-3 prostate) | GI50 (SF-295 CNS) | GI50 (SF-539 CNS) | GI50 (SR leukemia)
CC(=O)OCCOCn1c2ccccc2c2c3c(c4c5ccccc5n(COCCOC(C)=O)c4c21)C(=O)N(Cc1ccccc1)C3=O | > 100 µM | > 100 µM | > 100 µM | > 100 µM | > 100 µM | > 100 µM | – | – | – | – | – | – | – | – | – | – | – | – | – | –
N#CCCN(CCC#N)c1ccc(/C=C(/NC(=O)c2cc([N+](=O)[O-])ccc2Cl)C(=O)N=[N+]=[N-])cc1 | > 100 µM | > 100 µM | > 100 µM | > 100 µM | > 100 µM | > 100 µM | > 100 µM | > 100 µM | – | – | – | – | – | – | – | – | – | – | – | –
Cc1nc2ccccn2c1NC(=O)NN1C(=O)CSC1c1ccc(Cl)cc1 (configuration not stated) | > 100 µM | > 100 µM | > 100 µM | > 100 µM | > 100 µM | > 100 µM | > 100 µM | – | > 100 µM | > 100 µM | > 100 µM | > 100 µM | > 100 µM | > 100 µM | > 100 µM | > 100 µM | > 100 µM | > 100 µM | > 100 µM | –
C/C(NNC(=O)c1ccccc1O)=C1\C=Nc2ccccc2S1 | > 100 µM | 28.2 µM | > 100 µM | > 100 µM | 24.7 µM | 7.81 µM | > 100 µM | > 100 µM | – | – | – | – | – | – | – | – | – | – | – | –
O=C1Cc2c(-c3ccccc3)cc(-c3ccccc3)nc2-c2ccccc2N1 | 59.2 µM | 26.6 µM | 19 µM | > 100 µM | 29.6 µM | 34.4 µM | 10.7 µM | – | – | – | 4.04 µM | – | 20.3 µM | – | – | – | 42.9 µM | – | – | –
COc1cccc(/C=N/[N-]C(=O)c2ccncc2)c1[O-].[Mn+2].[OH3+] | 94.3 µM | > 100 µM | 47.8 µM | 9.69 µM | > 100 µM | 8.97 µM | > 100 µM | > 100 µM | 27.4 µM | 5.69 µM | 3.75 µM | – | – | 2.9 µM | 4.34 µM | – | – | 16.2 µM | 2.51 µM | 3.63 µM
CCCCCCCCCCC(=O)CCCCCCC(=O)O | 42.7 µM | 32.2 µM | 56.6 µM | 26.9 µM | 30.9 µM | 43.8 µM | 48.7 µM | 44.2 µM | – | – | – | – | – | – | – | – | – | – | – | –
COc1ccc(C(c2ccccc2C(=O)O)c2ccc(OC)c3ccccc23)c2ccccc12 | 39 µM | 31 µM | 23.5 µM | > 100 µM | – | 24.4 µM | 25.6 µM | – | – | – | – | – | – | – | – | – | – | – | – | –
Clc1ccc(-c2cc(-c3ccccc3)nc(N3CCN(CCCNc4ccnc5cc(Cl)ccc45)CC3)n2)cc1 | 2.81 µM | 3.75 µM | 2.96 µM | 2.31 µM | 3.1 µM | 3.25 µM | 3.72 µM | – | 1.48 µM | 1.77 µM | 1.61 µM | 1.52 µM | 2.94 µM | 0.461 µM | 1.56 µM | – | – | 1.86 µM | 1.79 µM | –
CCCCCCCCSC(=O)NCCCC | > 100 µM | > 100 µM | > 100 µM | > 100 µM | > 100 µM | > 100 µM | > 100 µM | – | – | – | – | – | – | – | – | – | – | – | – | –
CCCCC(C(=O)C(=O)Nc1ccc(C)cc1C)C(=O)C(C)C (configuration not stated) | > 100 µM | > 100 µM | > 100 µM | > 100 µM | > 100 µM | > 100 µM | > 100 µM | – | – | – | – | – | – | – | – | – | – | – | – | –
O/N=C1/CCCC/C1=C/C=C/c1ccccc1 | 41.2 µM | 54.9 µM | 72.5 µM | 96.1 µM | 53.8 µM | 38.3 µM | 69.8 µM | > 100 µM | – | – | – | – | 62.9 µM | – | – | – | – | – | – | –
C#CCN(N=O)C(=O)NC(CCCCNC(=O)OCc1ccccc1)C(=O)OCc1ccccc1 (configuration not stated) | > 100 µM | > 100 µM | > 100 µM | 50.5 µM | > 100 µM | – | > 100 µM | – | – | – | – | – | – | – | – | – | – | – | – | –
CC(=O)Nc1ccccc1-c1nc2ccccc2nc1-c1ccccc1 | > 100 µM | > 100 µM | > 100 µM | > 100 µM | > 100 µM | > 100 µM | > 100 µM | > 100 µM | – | – | – | – | – | – | – | – | – | – | – | –
COc1ccc(C(=O)/C=C/c2sc(Cl)nc2Cl)cc1 | 20.2 µM | 19.5 µM | 3.05 µM | > 100 µM | 10.6 µM | 4.26 µM | 11.7 µM | – | 4.67 µM | 3.72 µM | 1.66 µM | 1.9 µM | 3.55 µM | 0.328 µM | 3.17 µM | 2.83 µM | 11.6 µM | 3.07 µM | 1.56 µM | –
CNC(=O)c1cc(Oc2ccc3nc(NC(=O)Nc4ccc(CN5CCOCC5)c(C(F)(F)F)c4)sc3c2)ccn1 | 4.05 µM | 5.86 µM | 4.21 µM | > 100 µM | 4.33 µM | 3.37 µM | 4.73 µM | – | 1.9 µM | 2.15 µM | 1.68 µM | 2.73 µM | 9.4 µM | 1.53 µM | 2.01 µM | 2.04 µM | 6.22 µM | 1.9 µM | 1.58 µM | –
O=C(NCCCCCCCCCCCCNC(=O)c1cnc2ccccc2n1)c1cnc2ccccc2n1 | > 100 µM | > 100 µM | > 100 µM | > 100 µM | > 100 µM | 36.8 µM | > 100 µM | – | – | – | – | – | – | – | – | – | – | – | – | –
O=C1c2c(O)cccc2C(C(=O)CCCCCC(=O)C2c3cccc(O)c3C(=O)c3c(O)cccc32)c2cccc(O)c21 | 10.9 µM and 37.6 µM | 3.68 µM and 14.5 µM | 5.71 µM and 16.6 µM | 25 µM and 12.5 µM | 1.62 µM and 5.23 µM | – | 25 µM and 3.74 µM | 4.33 µM | 21 µM | 6.6 µM | 9.48 µM | – | – | 2.86 µM | 1.57 µM | – | – | 1.48 µM | 6.64 µM | –
CCc1cccc(C(C)C)c1NC(=O)CC1Sc2ccccc2NC1=O (configuration not stated) | > 100 µM | > 100 µM | > 100 µM | > 100 µM | > 100 µM | > 100 µM | > 100 µM | 94.4 µM | – | – | – | – | – | – | – | – | – | – | – | –
NC(Cc1ccccc1)C(=O)OCN1C(=O)C2C3C=CC(C2C1=O)C1C2C(=O)N(COC(=O)C(N)Cc4ccccc4)C(=O)C2C31 (configuration not stated) | > 100 µM | 61.7 µM and 48.7 µM | 59.2 µM and 71.3 µM | 63.2 µM and > 100 µM | 27.4 µM and 30.8 µM | 44.8 µM and 44.6 µM | > 100 µM | 50.3 µM | > 100 µM and 46 µM | – | – | – | – | – | – | – | – | – | – | –
